Starred links: 1 amine or outer side, 2 acyl side, 3 side chain; linkers in the order of their positions; H or OH if unused. Positions of bridges follow the written chain, without caps; N, C: chain ends. Non-standard residues stand in square brackets, D forms with d. Residues, ends and D or L forms follow the SMILES beside them. *: point of attachment. βAsp = O=C(O)[C@H](CC(=O)[*:2])N[*:1]; His(π-Me) = Cn1cncc1C[C@H](N)C(=O)O; For = O=C*
How the values were obtained:
[1] = tested on: HepG2
[2] = tested on: commensal bacteria, including Lactobacillus sp. and Bacteroides sp.; assay: Activity against commensal bacteria; type: cell-based
[3] = tested on: mouse; assay: Toxicity in a mouse; type: in vivo; settings: intraperitoneally, 100 mg kg^−1, survival observed for 24 hours
[4] = target: T1, M. tuberculosis gyrase (MtbGyrase) (Mycobacterium tuberculosis, UniProt P9WG45+P9WG47); type: biochemical; settings: no ATP
T1 sequence (P9WG45 whole entry, looked up): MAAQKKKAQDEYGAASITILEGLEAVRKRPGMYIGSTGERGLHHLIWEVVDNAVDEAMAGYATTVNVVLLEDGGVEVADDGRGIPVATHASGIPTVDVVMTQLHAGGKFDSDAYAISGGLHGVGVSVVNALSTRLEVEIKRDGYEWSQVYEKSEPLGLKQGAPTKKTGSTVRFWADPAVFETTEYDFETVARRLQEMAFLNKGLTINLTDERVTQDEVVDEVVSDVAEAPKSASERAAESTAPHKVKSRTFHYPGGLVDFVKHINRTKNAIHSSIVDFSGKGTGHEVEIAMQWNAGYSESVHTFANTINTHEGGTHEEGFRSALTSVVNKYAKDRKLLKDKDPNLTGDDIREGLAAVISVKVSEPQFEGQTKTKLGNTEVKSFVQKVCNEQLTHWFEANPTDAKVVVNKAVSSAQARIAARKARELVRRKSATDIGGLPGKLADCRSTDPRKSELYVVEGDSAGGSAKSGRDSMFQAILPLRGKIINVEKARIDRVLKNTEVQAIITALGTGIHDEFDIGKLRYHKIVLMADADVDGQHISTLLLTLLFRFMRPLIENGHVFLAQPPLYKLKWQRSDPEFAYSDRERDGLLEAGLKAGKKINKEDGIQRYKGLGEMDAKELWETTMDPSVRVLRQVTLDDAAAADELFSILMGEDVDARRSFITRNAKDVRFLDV
T1 sequence (P9WG47 whole entry, looked up): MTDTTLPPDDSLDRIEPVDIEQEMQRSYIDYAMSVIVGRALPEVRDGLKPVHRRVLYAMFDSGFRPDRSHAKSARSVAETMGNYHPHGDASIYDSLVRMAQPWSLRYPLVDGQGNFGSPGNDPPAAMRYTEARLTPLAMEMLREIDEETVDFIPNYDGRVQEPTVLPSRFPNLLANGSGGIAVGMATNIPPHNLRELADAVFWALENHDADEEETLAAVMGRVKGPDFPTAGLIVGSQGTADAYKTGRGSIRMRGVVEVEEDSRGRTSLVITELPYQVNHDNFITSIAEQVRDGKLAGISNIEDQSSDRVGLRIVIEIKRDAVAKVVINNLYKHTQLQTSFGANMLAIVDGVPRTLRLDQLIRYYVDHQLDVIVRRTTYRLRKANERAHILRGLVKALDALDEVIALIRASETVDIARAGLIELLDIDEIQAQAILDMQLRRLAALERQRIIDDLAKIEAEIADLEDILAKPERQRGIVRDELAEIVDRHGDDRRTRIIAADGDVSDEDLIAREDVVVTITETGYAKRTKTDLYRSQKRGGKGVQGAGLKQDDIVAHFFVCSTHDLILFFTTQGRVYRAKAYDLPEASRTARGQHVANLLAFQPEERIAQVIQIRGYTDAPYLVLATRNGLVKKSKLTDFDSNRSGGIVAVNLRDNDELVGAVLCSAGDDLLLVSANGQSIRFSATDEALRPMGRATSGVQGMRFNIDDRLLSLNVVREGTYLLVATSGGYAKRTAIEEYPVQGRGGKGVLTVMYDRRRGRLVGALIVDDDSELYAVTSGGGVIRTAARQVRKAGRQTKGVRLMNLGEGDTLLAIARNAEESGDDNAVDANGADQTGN

[5] = tested on: E. coli WO153; assay: Macromolecule incorporation assay; type: cell-based, Escherichia coli; settings: 8x MIC of evybactin
[6] = target: E. coli topo IV (Escherichia coli, UniProt P0AFI2+P20083); assay: Supercoil relaxation assay; type: biochemical; settings: 100 μM evybactin, 0–20 nM enzyme
[7] = tested on: FaDu
[8] = target: T1, M. tuberculosis gyrase (MtbGyrase); assay: Supercoiling assay; type: biochemical
[9] = target: E. coli gyrase (Escherichia coli, UniProt P0AES4+P0AES6); assay: Supercoiling assay; type: biochemical; settings: 100 μM evybactin, 0–20 nM enzyme, strong cleavage visible at 5 nM enzyme
Sequence of E. coli gyrase (P0AES4 whole entry, one chain of several): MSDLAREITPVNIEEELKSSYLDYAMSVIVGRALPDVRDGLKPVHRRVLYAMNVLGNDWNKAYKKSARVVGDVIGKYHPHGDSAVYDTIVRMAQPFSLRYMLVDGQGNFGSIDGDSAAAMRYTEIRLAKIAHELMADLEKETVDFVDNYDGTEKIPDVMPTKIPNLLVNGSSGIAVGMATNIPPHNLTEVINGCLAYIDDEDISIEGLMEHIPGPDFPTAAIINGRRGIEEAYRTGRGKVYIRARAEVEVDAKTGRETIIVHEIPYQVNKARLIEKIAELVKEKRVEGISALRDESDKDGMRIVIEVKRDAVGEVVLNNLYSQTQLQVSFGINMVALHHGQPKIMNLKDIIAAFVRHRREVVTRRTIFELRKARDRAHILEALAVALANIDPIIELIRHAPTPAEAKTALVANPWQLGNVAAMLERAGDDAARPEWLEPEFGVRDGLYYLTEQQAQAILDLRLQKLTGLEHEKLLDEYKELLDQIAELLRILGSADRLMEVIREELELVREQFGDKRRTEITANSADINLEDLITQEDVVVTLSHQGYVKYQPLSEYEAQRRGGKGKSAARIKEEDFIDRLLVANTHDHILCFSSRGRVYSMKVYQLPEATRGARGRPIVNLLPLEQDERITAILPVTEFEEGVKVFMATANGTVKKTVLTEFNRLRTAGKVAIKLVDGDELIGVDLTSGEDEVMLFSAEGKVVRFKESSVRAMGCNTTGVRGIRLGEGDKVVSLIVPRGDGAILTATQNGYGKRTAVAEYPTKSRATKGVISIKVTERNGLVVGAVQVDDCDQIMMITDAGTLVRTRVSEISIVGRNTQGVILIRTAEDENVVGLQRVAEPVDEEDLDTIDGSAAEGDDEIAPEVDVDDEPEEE

[10] = tested on: HEK293
[11] = tested on: M. tuberculosis H37Rv mc^26020; assay: Vitamin B12 competition assay; type: cell-based, Mycobacterium tuberculosis; settings: 1,000-fold molar excess of vitamin B12, 7 days, 37 °C
[12] = tested on: M. tuberculosis H37Rv mc^26020; assay: Time-dependent killing; type: cell-based, Mycobacterium tuberculosis
[13] = Solubility in water
[14] = tested on: M. tuberculosis; assay: Cell elongation, microscopy; type: cell-based, Mycobacterium tuberculosis
[15] = target: MtbGyrase (Mycobacterium tuberculosis, UniProt P9WG45+P9WG47); type: biochemical
Sequence of MtbGyrase (P9WG45 whole entry, looked up): as the sequence (P9WG45 whole entry, looked up) above
Sequence of MtbGyrase (P9WG47 whole entry, looked up): as the sequence (P9WG47 whole entry, looked up) above

[16] = tested on: Mycobacterium tuberculosis H37Rv mc^26020; assay: MIC, broth microdilution; type: cell-based; settings: bleomycin susceptibility, value before the MIC shift

With `C[C@@H](O)[C@H](NC(=O)[C@H](Cc1c[nH]c2ccccc12)NC=O)C(=O)N[C@H](CCCNC(=N)N)C(=O)N[C@@H]1C(=O)N[C@@H](Cc2cncn2C)C(=O)N[C@H](C(=O)O)CC(=O)N[C@H](CO)C(=O)N[C@@H](Cc2ccccc2)C(=O)NCC(=O)N[C@H](CCCNC(=N)N)C(=O)N[C@@H](CO)C(=O)N[C@H](C(=O)O)CC(=O)O[C@@H]1C` [evybactin] (For-WT[dR]T[His(π-Me)][βAsp][dS]FG[dR]S[βAsp]; ester 4-C) the “toxicity against human cells” value [1] was “no toxicity”, the “activity against commensal bacteria” value [2] was “no activity” and the “toxicity, survival” value [3] was “no indications of toxicity”. For the same molecule, the “DNA cleavage in the absence of ATP” value [4] was “little to no cleavage”, the “DNA synthesis (^14C-thymidine incorporation)” value [5] was “inhibits DNA synthesis” and the “RNA, protein and fatty acid synthesis (label incorporation)” value [5] was “less of an effect”. The DNA cleavage [6] was “stimulated DNA cleavage”, the “toxicity against human cells” value [7] was “no toxicity” and the “supercoiling activity and DNA cleavage” value [8] was “inhibited the supercoiling activity”. For the same molecule, the DNA cleavage [9] was “stimulated DNA cleavage”, the “toxicity against human cells” value [10] was “no toxicity” and the “effect of vitamin B12 on evybactin susceptibility” value [11] was “no change in the susceptibility”. For the same molecule, the killing ability [12] was “highly bactericidal”, the solubility [13] was greater than 40 mg/mL and the “cell length versus non-treated cells” value [14] was “approximately two times longer”.

In the case of `COc1c(N2C[C@@H]3CCCN[C@@H]3C2)c(F)cc2c(=O)c(C(=O)O)cn(C3CC3)c12` [moxifloxacin], the “ATPase rate (Vmax)” value [15] is reported as 0.4 ± 0.1 molecules of ATP per second per enzyme.

In the case of bleomycin, the “MIC (before shift)” value [16] is reported as 0.06 µg/mL.
